Experimental data from paper PMC12428237, “Study on the Calcium Transport-Promoting Property and Mechanism of the Peptide–Calcium Complex DEEENDQVK–Ca Based on a Caco-2 Monolayer Model” (Foods, 2025).
Like-named read-outs stand apart in the source and are kept apart here.

Columns and labels:
Caco-2 monolayer [1] = conditions: cited from earlier work; for increase of intestinal calcium transport compared with the control group: within 30 min
Procedure: With 1~2 mg/mL of DK, the tran ... || This study’s results align with earlier findings regarding peptide–calcium complexes.

[2] = cited from earlier work
Description: Dietary calcium supplementation offers a direct solution to calcium deficiency. However, traditional calcium supplements (e.g., calcium carbonate) suffer from limitations such as low bioavailability and gastrointestinal irritation, which lead to reduced efficacy. […] This enhanced performance is primarily attributed to the peptide ... || This study’s results align with earlier findings regarding peptide–calcium complexes.

Caco-2 monolayer [3] = assay: Calcium transport assay in Caco-2 monolayer model; type: cell-based, human; conditions: 7.5 mM CaCl2 on AP side, AP to BL, HBSS pH 7.4, 37 °C, 120 min, calcium colorimetric kit 575 nm; mean ± SD, n = 3
Procedure: (§1) Caco-2 cells (passages 15–30) were seeded at 1 × 10^5 cells/mL in Transwell chambers (12 mm, 0.4 μm pores, polycarbonate membrane, 1.12 cm^2 area) to establish a Caco-2 monolayer model. The culture medium (0.5 mL in the apical and 1.5 mL in the basolateral) was refreshed every 48 h (first week), then daily (next two weeks). The integrity of the Caco-2 cell monolayer model was verified by the following multiple indicators: Transepithelial electrical resistance (TEER) was monitored every 48 h using an epithelial voltohmmeter (RE1600, Beijing Jingong Hongtai Technology Co., Ltd., Beijing, China). Alkaline phosphatase (ALP) activity was measured on days 8, 12, 14, 16, and 21 after inoculation utilizing an ALP assay kit, following the manufacturer’s protocol. Transepithelial permeability was evaluated using sodium fluorescein following the method of Qiu et al..
Caco-2 monolayer models with a TEER value exceeding 500 Ω·cm^2 are permitted for calcium transport studies. Following three sequential washes with Hank’s balanced salt solution (HBSS; calcium/magnesium-free, pH 7.4), monolayers were equilibrated at 37 °C for 30 min. Afterward, the Transwell chambers were moved to fresh receiver plates for transport assays.
Concentration-dependent CaCl2 transport assay: 0.5 mL of CaCl2 solution (1.5~10 mM) was added to the apical (AP) side. The basolateral (BL) side contained 1.5 mL prewarmed HBSS. After 120 min incubation at 37 °C and 5% CO2, the BL side solution was collected for calcium transport analysis.
Time-dependent CaCl2 transport assay: The AP side contained 0.5 mL of 7.5 mM CaCl2 solution, and the BL side 1.5 mL prewarmed HBSS. At designated intervals (30~180 min), 1 mL BL side solution was collected and replaced with equal volumes of fresh HBSS buffer to maintain consistency.
Different concentrations of DK solution (0.5~2 mg/mL, 0.5 mL) containing 7.5 mM CaCl2, or 0.5 mL of DK–Ca solution (0.5~2 mg/mL), were added to the AP side. The BL side contained 1.5 mL prewarmed HBSS. The control group contained 7.5 mM CaCl2 alone on the AP side. At designated intervals (30~180 min), 1 mL BL side solution was collected and replaced with equal volumes of fresh HBSS buffer to maintain consistency.
Calcium concentration in the collected sample was measured using a calcium colorimetric assay kit at 575 nm. Transported calcium was calculated as follows:(1) Tn=1.5Cn+1×∑k=1n-1Ck […]

Caco-2 monolayer [4] = assay: Effect of dietary components (vitamin D3, phytic acid) on calcium transport in Caco-2 monolayer; type: cell-based, human; conditions: 120 min, control without dietary component, n = 3
Procedure: Vitamin D3 (0.5 μmol/L, dissolved in 0.1% ethanol) or phytic acid (1.8 mM, with a of phytic acid/calcium molar ratio of 0.24) was added to the AP side to evaluate the effect of dietary components on calcium transport. The group without an added dietary component served as the control group. After 120 min incubation, the BL side solution was collected for calcium transport analysis.

Caco-2 monolayer [5] = assay: Fluo-4 AM fluorescence imaging of intracellular calcium influx; type: cell-based, human; conditions: samples containing 150 μg/mL calcium, 24 h, Fluo-4 AM 4 μmol/L, confocal microscope
Procedure: Fluorescence imaging based on intracellular calcium influx was conducted to assess the calcium transport-promoting effect in the Caco-2 monolayer following the method of Men et al.. Log-phase cells were seeded at 1.5 × 10^5 cells/well in 35 mm laser confocal dishes and gently agitated to ensure uniform distribution. Cultures were maintained at 37 °C in 5% CO2 with daily medium replacement until confluent monolayers formed. Subsequently, CaCl2, DK + CaCl2, and DK–Ca solutions (each containing 150 μg/mL calcium) were added separately. The group without an added sample served as the control group. Following 24 h of incubation, the cells were washed thrice with prewarmed calcium-/magnesium-free HBSS buffer (pH 7.2). Under light-protected conditions, 200 µL of Fluo-4 AM (4 μmol/L) was applied to cover the cells. Following 30 min incubation at 37 °C and subsequent washes, cells were dark-adapted for 10 min at room temperature for de-esterification. Imaging was conducted using a confocal microscope (excitation at 496 nm, Zeiss LSM980 Airyscan2, Carl Zeiss, Germany ), followed by quantification of the fluorescence intensity with ImageJ 1.54 g software.

Caco-2 cells = assay: MTT cell viability assay; type: cell-based, human; conditions: 24 h, concentration range 0~5 mg/mL, n = 3
Procedure: Caco-2 cells were maintained in complete DMEM medium containing 20% (v/v) FBS, 1% non-essential amino acids, and penicillin-streptomycin (100 U/mL−100 μg/mL) at 37 °C under 5% CO2 atmosphere, with medium replacement every 48 h. At 80–90% confluency, cells were seeded into 96-well plates (1 × 10^4 cells/well). After 24 h of incubation, the original medium was exchanged for a new solution containing CaCl2 (0~5 mg/mL), DK (0~5 mg/mL), DK + CaCl2 (1:1 w/w, 0~5 mg/mL), DK–Ca (0~5 mg/mL), 2-APB (0~75 μmol/L), cytochalasin D (0~2 μg/mL), and mβCD (0~5 mmol/L). After 24 h of incubation, the cell viability was assessed by MTT [21].

Caco-2 monolayers = conditions: 120 min; cited from earlier work
Procedure: To assess component changes in DK–Ca after 120 min of calcium-promoting transport, solutions collected from the AP and BL sides of the monolayer were subjected to RP-HPLC analysis.

Caco-2 monolayer [6] = assay: Transepithelial permeability of sodium fluorescein (monolayer integrity); type: in vitro ADME, human; conditions: Transwell, after 21 days of differentiation, mean ± SD
Procedure: as §1

In the case of “FDHIVY [tilapia collagen-derived peptide]”, the “increase of intestinal calcium transport compared with the control group” value (“increase of intestinal calcium transport” for short) (Caco-2 monolayer [1]) is given as 202%.
For YGTGL, the calcium-binding capacity [2] is listed as 76.03 mg/g.
With [Ca+2].[Cl-].[Cl-] [CaCl2] the transported calcium (Caco-2 monolayer [3]) was 27.55 ± 1.20 μg/well, the “reduction of transported calcium by phytic acid compared to the control group” value (Caco-2 monolayer [4]; phytic acid 1.8 mM (phytic acid/calcium molar ratio 0.24) on AP side) was 49.11% and the “increase of transported calcium by vitamin D3 compared to the control group” value (Caco-2 monolayer [4]; vitamin D3 0.5 μmol/L on AP side) was 22.68%. For the same compound, the “fluorescence intensity (intracellular calcium influx) compared to the control group” value (Caco-2 monolayer [5]) was “significantly increased” and the “decrease of calcium absorption by phytic acid” value (Caco-2 monolayer [1]) was 79.86%.
For LVFL, the calcium-binding capacity [2] is listed as 79.50 mg/g.
In the case of “GPAGPHGPVG [tilapia collagen-derived peptide]”, the “increase of intestinal calcium transport” value (Caco-2 monolayer [1]) is listed as 89%.
For C=C1[C@@H](C)[C@H]2[C@H](Cc3ccccc3)NC(=O)[C@]23[C@H](OC(C)=O)/C=C/[C@@](C)(O)C(=O)[C@@H](C)C/C=C/[C@H]3[C@@H]1O [cytochalasin D, Cytochalasin D], the “cytotoxicity to Caco-2 cells” value (Caco-2 cells) was “no cytotoxicity”.
In the case of YQEPVPVRGPFPIIV, the “cleavage after culture in Caco-2 monolayers” value (Caco-2 monolayers) is listed as “cleaved into […] and […]”.
For “YQEPVIAPKL [tilapia collagen-derived peptide]”, the “increase of intestinal calcium transport” value (Caco-2 monolayer [1]) is listed as 130%.
In the case of “AHVGMSGEEPE [rice protein-derived peptide]”, the calcium-binding capacity [2] is given as 55.69 mg/g.
For “AHVGMSGEEPE-Ca [AHV-Ca, rice peptide–calcium complex]”, the transported calcium (Caco-2 monolayer [1]; Caco-2 monolayers) is listed as 61.75 ± 13.23 μg/well and the “transported calcium, fold versus CaCl2” value (Caco-2 monolayer [1]; Caco-2 monolayers) is listed as 2.16 fold.
For VLPVPQK, the calcium-binding capacity [2] is listed as 129.46 mg/g.
In the case of “DHTKE [DHTKE–calcium complex, egg white hydrolysate-derived DHTKE–calcium complex]”, the “increase of transported calcium compared to the calcium-free control group” value (Caco-2 monolayer [1]) is listed as “seven-fold”.
With O=C([O-])c1ccccc1-c1c2ccc(=O)cc-2oc2cc([O-])ccc12.[Na+].[Na+] [sodium fluorescein] the “apparent permeability coefficient (Papp)” value (Caco-2 monolayer [6]; 30 min) was 7.17±0.22 ×10^-7 cm/s, the “apparent permeability coefficient (Papp)” value (Caco-2 monolayer [6]; 60 min) was 7.47±0.25 ×10^-7 cm/s and the “apparent permeability coefficient (Papp)” value (Caco-2 monolayer [6]; 90 min) was 7.56±0.64 ×10^-7 cm/s. For the same compound, the “apparent permeability coefficient (Papp)” value (Caco-2 monolayer [6]; 120 min) was 8.35 ± 0.15 ×10-7 cm/s.
